Measurements reported in patent US9783532B2, “Molecules having certain pesticidal utilities, and intermediates, compositions, and processes related thereto” (Dow AgroSciences LLC, priority 2013, dated 2017).

Experiments:
[1] = system: Beet Armyworm (Spodoptera exigua) ("BAW"); assay: Bioassay on beet armyworm (BAW), 128-well diet tray assay; type: in vivo; conditions: 168 h, 50 μg/cm^2 on artificial diet, second instar BAW larvae, 25° C., five to seven days, average of eight wells, read-out: BAW % Control (or Mortality) rating
In short: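 Percent mortality, averaged across eight wells, was read after five to seven days at 25° C. under 14:10 light-dark. Each well held one to five second-instar larvae on artificial diet that had been treated with 50 μg/cm^2 compound in 90:10 acetone-water and dried.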

[2] = system: Cabbage Looper (Trichoplusia ni) ("CL"); assay: Bioassay on cabbage looper (CL), 128-well diet tray assay; type: in vivo; conditions: 168 h, 50 μg/cm^2 on artificial diet, second instar CL larvae, 25° C., five to seven days, average of eight wells, read-out: CL % Control (or Mortality) rating
In short: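 Percent mortality, averaged across eight replicate wells, was read after five to seven days at 25 °C under a 14:10 photoperiod. Each well held one to five second-instar T. ni on diet carrying a dried 50 μg/cm^2 dose applied in acetone-water 90:10.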

Row | SMILES | mortality at 50 µg/cm2 [1] | mortality at 50 µg/cm2 [2]
1 | CCCc1ccc(C)cc1N1C(=O)CS/C1=N\C(=O)NCc1ccc(-c2ncn(-c3ccc(OC(F)(F)F)cc3)n2)cc1 [P8, P852, (Z)-1-(3-(5-methyl-2-propylphenyl)-4-oxothiazolidin-2-ylidene)-3-(4-(1-(4-(trifluoromethoxy)phenyl)-1H-1,2,4-triazol-3-yl)benzyl)urea] | 50 to 100% | 50 to 100%
2 | CC(C)c1ccccc1N1C(=O)CS/C1=N\C(=O)NCc1ccc(-c2ncn(-c3ccc(C(F)(F)F)cc3)n2)cc1 [P14, (Z)-1-(3-(2-isopropylphenyl)-4-oxothiazolidin-2-ylidene)-3-(4-(1-(4-(trifluoromethyl)phenyl)-1H-1,2,4-triazol-3-yl)benzyl)urea] | 50 to 100% | 50 to 100%
3 | Cc1ccc(N2C(=O)CS/C2=N\C(=O)NCc2ccc(-c3ncn(-c4ccc(C(F)(F)F)cc4)n3)cc2)c(C(C)C)c1 [P15, (Z)-1-(3-(2-isopropyl-4-methylphenyl)-4-oxothiazolidin-2-ylidene)-3-(4-(1-(4-(trifluoromethyl)phenyl)-1H-1,2,4-triazol-3-yl)benzyl)urea] | 50 to 100% | 50 to 100%
4 | Cc1ccc(C(C)C)c(N2/C(=N/C(=O)NCCc3ccc(-c4ncn(-c5ccc(OC(F)(F)F)cc5)n4)cc3)SCC2C)c1 (stereo not shown) [P58, (Z)-1-(3-(2-isopropyl-5-methylphenyl)-4-methylthiazolidin-2-ylidene)-3-(4-(1-(4-(trifluoromethoxy)phenyl)-1H-1,2,4-triazol-3-yl)phenethyl)urea] | 50 to 100% | 50 to 100%
5 | Cc1ccc(C(C)C)c(N2CCCS/C2=N\C(=O)NCCc2ccc(-c3ncn(-c4ccc(OC(F)(F)F)cc4)n3)cc2)c1 [P59, (Z)-1-(3-(2-isopropyl-5-methylphenyl)-1,3-thiazinan-2-ylidene)-3-(4-(1-(4-(trifluoromethoxy)phenyl)-1H-1,2,4-triazol-3-yl)phenethyl)urea] | 50 to 100% | 50 to 100%
6 | Cc1ccc(C(C)C)c(N2CC(C)CS/C2=N\C(=O)NCCc2ccc(-c3ncn(-c4ccc(OC(F)(F)F)cc4)n3)cc2)c1 (stereo not shown) [P64] | 50 to 100% | 50 to 100%
7 | Cc1ccccc1N1C(=O)CS/C1=N\C(=O)NCCc1cccc(-c2ncn(-c3ccc(OC(F)(F)F)cc3)n2)c1 [P74, (Z)-1-(4-oxo-3-(o-tolyl)thiazolidin-2-ylidene)-3-(3-(1-(4-(trifluoromethoxy)phenyl)-1H-1,2,4-triazol-3-yl)phenethyl)urea] | 50 to 100% | 50 to 100%
8 | CCc1ccccc1N1C(=O)CS/C1=N\C(=O)NCCc1cccc(-c2ncn(-c3ccc(OC(F)(F)F)cc3)n2)c1 [P75, (Z)-1-(3-(2-ethylphenyl)-4-oxothiazolidin-2-ylidene)-3-(3-(1-(4-(trifluoromethoxy)phenyl)-1H-1,2,4-triazol-3-yl)phenethyl)urea] | 50 to 100% | 50 to 100%
9 | CC(C)c1ccccc1N1C(=O)CS/C1=N\C(=O)NCCc1cccc(-c2ncn(-c3ccc(OC(F)(F)F)cc3)n2)c1 [P76, (Z)-1-(3-(2-isopropylphenyl)-4-oxothiazolidin-2-ylidene)-3-(3-(1-(4-(trifluoromethoxy)phenyl)-1H-1,2,4-triazol-3-yl)phenethyl)urea] | 50 to 100% | 50 to 100%
10 | CCCc1ccc(C)cc1N1C(=O)CS/C1=N\C(=O)NCCc1cccc(-c2ncn(-c3ccc(OC(F)(F)F)cc3)n2)c1 [P80, (Z)-1-(3-(5-methyl-2-propylphenyl)-4-oxothiazolidin-2-ylidene)-3-(3-(1-(4-(trifluoromethoxy)phenyl)-1H-1,2,4-triazol-3-yl)phenethyl)urea] | 50 to 100% | 50 to 100%
11 | CCc1cccc(C)c1N1C(=O)CS/C1=N\C(=O)NCCc1cccc(-c2ncn(-c3ccc(OC(F)(F)F)cc3)n2)c1 [P83, (Z)-1-(3-(2-ethyl-6-methylphenyl)-4-oxothiazolidin-2-ylidene)-3-(3-(1-(4-(trifluoromethoxy)phenyl)-1H-1,2,4-triazol-3-yl)phenethyl)urea] | 50 to 100% | 50 to 100%
